Measured values from US20190040025A1, “INDOLEAMINE 2,3-DIOXYGENASE INHIBITOR, PREPARATION METHOD THEREFOR, AND APPLICATION” (Jiangsu Hansoh Pharmaceutical Group Co., Ltd., priority 2016, published 2019).

How the values were obtained:
[1] = system: mouse pancreatic cancer cell line PAN02; experiment: Anti-tumor effect in PAN02 tumor-bearing mouse model; type: in vivo, mouse (C57/BL6); details: PAN02 tumor-bearing mice, 50 mg/kg intragastric twice a day
Excerpt: The invention used the PAN02 tumor-bearing mouse model to test the anti-tumor effect of the example compounds. The PAN02 tumor-bearing mouse model was the mouse pancreatic cancer cell line PAN02 purchased from Guangzhou Ginnio Biological Technology Co., Ltd., and the culture medium used was DMEM containing 10% fetal bovine serum. The mouse strain used for tumor-bearing was C57/BL6 purchased from Shanghai Slac Laboratory Animal Co., Ltd. At the time of implanting, the PAN02 cells in the logarithmic growth phase were collected, and mixed with the BDMatrigel matrix gel that reduced the growth factor to 50 million cells/ml. Each mouse was implanted subcutaneously with 100 μL of 5 million cells. When the tumor grew to about 100 cubic millimeters, animals were randomly divided into groups with 8 animals per group. Drug administration was started (D0).
Mode of administration: intragastrical administration, twice a day.
(§1) Formulation prescription: 3% two methyl acetamide and 20% hydroxypropyl-β-cyclodextrin. • Administration period and tumor measurement: The administration period was 13 days. The tumor volume was measured, the mice were weighed, and the data were recorded, 3 times a week. The calculation formula of tumor volume (V) is: V=½a×b2, where a and b represent length and width respectively. The calculation formula of T/C is: T/C (%)=100×ΔT/ΔC. Tumor inhibition rate (%)=1−T/C (%). • Experimental results: the anti-tumor effect of the compound of Example 15 in PAN02 tumor-bearing mouse model is shown in the following table.

[2] = Pharmacokinetic (PK) analysis of rat plasma; type: in vivo; details: Sprague-Dawley, po, 20 mg/kg, SD rats, single gavage, 20 mg/10 mL/kg
Procedure: The pharmacokinetics test of the test compound was performed with Sprague Dawley (SD) rats (Shanghai Slac Laboratory Animal Co., LTD).
Mode of administration: Single gavage.
U Dosage: 20 mg/10 mL/kg.
Formulation prescription: 3% dimethylacetamide and 20% hydroxypropyl-3-cyclodextrin.
Sampling points: before administration and 15 minutes, 0.5, 1, 2, 4, 6, 8 and 24 hours after administration.
Plasma sampling and sample processing: • 1) 0.2 ml of intravenous blood was collected and placed in an EDTA-2K tube. The blood was centrifuged at 4° C. for 5 minutes at 6,000 rpm to separate the plasma, which was stored at −80° C. • 2) 160 μL of acetonitrile were added to 40 μL of plasma sample, standard, and internal reference. The mixture was shaken vertically for 3 minutes, and centrifuged at 4000 rpm for 10 minutes. 100 μL of the supernatant were taken, and then added with 100 μL of deionized water and mixed well. 100 μL of the resulting solution was taken for LC/MS/MS analysis. The instrument for plasma LC/MS/MS analysis was AB Sciex API 4000.
Liquid Chromatography Analysis: • Liquid chromatography conditions: Shimadzu LC-20AD pump • Chromatographic column: phenomenex Gemiu 5 μm C18 50×4.6 mm • Mobile phase: solution A was 0.1% formic acid solution, and solution B was acetonitrile • Flow rate: 0.8 mL/min • Elution time: 0-3.01 minutes and the eluent was as follows:
• Mass spectrometry analysis: setup conditions of mass spectrometer: positive ion electrospray ionization (ESI) mode. • Experimental results: the main parameters of pharmacokinetics were calculated by WinNonlin 6.1 and the experimental results are shown in the following table: […]

[3] = system: mouse rectal cancer cell line Colon26; experiment: Anti-tumor effect in Colon26 tumor-bearing mouse model; type: in vivo, mouse (Balb/c); details: Colon26 tumor-bearing mice, 25 mg/kg intragastric twice a day
Excerpt: The present invention further used the Colon26 tumor-bearing mouse model to test the anti-tumor effect of the example compounds. The Colon26 tumor-bearing mouse model was the mouse rectal cancer cell line Colon26 purchased from Guangzhou Ginio Biological Technology Co., Ltd., and the culture medium used was RPMI1640 containing 10% fetal bovine serum. The mouse strain used for tumor-bearing was Balb/c purchased from Sino-British SIPPR/BK Lab Animal Co., Ltd. At the time of implanting, the Colon26 cells in logarithmic growth phase were collected and mixed to 10 million cells/ml. Each mouse was implanted subcutaneously with 100 μl of one million cells. When the tumor grew to about 100 cubic millimeters, animals were randomly divided into groups with 8 animals per group. Drug administration was started (D0).
Mode of administration: intragastric administration, twice a day.
as §1, with “3% dimethylacetamide” for “3% two methyl acetamide”, “times per” for “times a”, “is: V=½a×b2” for “is: V=½a×b2,”, “and width,” for “and width”, “results: The antitumor” for “results: the anti-tumor”, “in Colon26” for “in PAN02”
Under the same experimental conditions, the dosage was adjusted. The anti-tumor effect of Example 15 and its optical isomers 18-(1) and 18-(2) in Colon26 tumor-bearing mouse model is shown in the following table: […]

AUC(0-inf) [2]: 2.45 µg·h/mL
Cmax [2]: 0.306 µg/mL
Tmax [2]: 1 h
half-life [2]: 3.5 h
SMILES: NS(=O)(=O)NCCNc1nonc1C(=NO)Nc1ccc(F)c(Br)c1 [INCB-24360, Epacadostat, reference compound]
Average tumor volume (mm^3 ± SEM) D0 ([1]; D0 (start of administration)): 102.8 ± 3.4 mm^3
Average tumor volume (mm^3 ± SEM) D12 ([1]; D12): 242.1 ± 23.4 mm^3
T/C (%) D12 ([1]; D12): 60.3%
Tumor inhibition rate (%) D12 ([1]; D12, 50 mg/kg): 39.7%
Average tumor volume (mm^3 ± SEM) D0 ([3]; D0 (start of administration)): 95.3 ± 2.4 mm^3
Average tumor volume (mm^3 ± SEM) D12 ([3]; D12): 565.2 ± 10.9 mm^3
T/C (%) D12 ([3]; D12): 21.6%
Tumor inhibition rate (%) D12 ([3]; D12, 25 mg/kg): 78.4%
